In article PMC4557792 (ACS chemical biology, 2013):

Tests used:
[1] = tested on: VMAT; conditions: cited from earlier work; for IC50: read-out: IC50, inhibiting [3H]DA uptake, rat brain vesicles
[2] = target: VMAT2 (Rattus norvegicus, UniProt Q01827); assay type: cell-based; conditions: for inhibitory effect on VMAT2 transport (FFN206 uptake) in screen: tested compound 10 µM, FFN206 1 µM, 30 min preincubation, 60 min uptake
[3] = tested on: VMAT2-HEK cells; assay: Fluorescence microscopy of FFN206 accumulation in VMAT2-HEK cells; assay type: cell-based, human
[4] = tested on: VMAT2; conditions: endogenous substrate; cited from earlier work

Chain of VMAT2 (Rattus norvegicus, UniProt Q01827) (Q01827 whole entry): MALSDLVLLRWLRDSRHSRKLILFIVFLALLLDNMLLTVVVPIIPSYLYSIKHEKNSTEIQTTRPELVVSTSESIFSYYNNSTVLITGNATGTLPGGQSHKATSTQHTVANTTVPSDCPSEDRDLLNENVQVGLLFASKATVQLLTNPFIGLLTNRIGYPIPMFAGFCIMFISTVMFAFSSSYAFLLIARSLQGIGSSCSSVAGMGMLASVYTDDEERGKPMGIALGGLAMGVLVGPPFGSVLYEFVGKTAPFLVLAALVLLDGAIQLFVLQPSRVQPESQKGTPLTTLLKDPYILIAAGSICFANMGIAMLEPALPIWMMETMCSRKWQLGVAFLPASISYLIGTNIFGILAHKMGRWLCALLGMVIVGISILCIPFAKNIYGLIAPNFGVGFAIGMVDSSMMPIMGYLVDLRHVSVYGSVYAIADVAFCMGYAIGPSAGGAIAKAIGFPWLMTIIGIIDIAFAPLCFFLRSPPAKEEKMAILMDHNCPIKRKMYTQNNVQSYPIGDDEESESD

| SMILES | activity in inhibiting vesicular uptake of [3H]DA by VMAT [1] | inhibitory effect on VMAT2 transport (FFN206 uptake) in screen [2] | also measured |
| --- | --- | --- | --- |
| C[C@@H](N)Cc1ccccc1 [R(−)-amphetamine] |  |  | IC50 [1]: 29 µM |
| COC(=O)[C@H]1[C@@H](OC(=O)c2ccccc2)C[C@@H]2CC[C@H]1N2C [cocaine] | inactive | no or weak inhibitory effects | inhibition of FFN206 uptake (negative control) ([2]; 96-well fluorometric assay, VMAT2-HEK cells): no detectable inhibition |
| CCN(CC)CCCC(C)Nc1ccnc2cc(Cl)ccc12 (stereo not shown) [Chloroquine, chloroquine] |  | reduces VMAT2-dependent uptake | effect on punctate FFN206 fluorescence signal ([3]; 100 µM, within 3 minutes of treatment, cells pre-loaded with FFN206 5 µM): completely abolished |
| NCCc1ccc(O)c(O)c1 [dopamine] |  |  | IC50 [4]: 0.92 ± 0.05 µM; Km [4]: 0.82 to 0.95 µM |
| c1ccc(CN2CCNCC2)cc1 [benzylpiperazine] | inactive | no or weak inhibitory effects |  |
| CC(C)(N)Cc1ccccc1 [phentermine] | inactive | no or weak inhibitory effects |  |
| CCN(CC)C(C)C(=O)c1ccccc1 (stereo not shown) [diethylpropion] | inactive | no or weak inhibitory effects |  |
| C[C@H](N)Cc1ccccc1 [S(+)-amphetamine] |  |  | IC50 [1]: 3.27 µM |
| COc1cc2c(cc1OC)C1CC(=O)C(CC(C)C)CN1CC2 (stereo not shown) [TBZ, tetrabenazine] |  |  | FFN206 uptake in VMAT2-HEK cells pre-treated with inhibitor ([3]; inhibitor 2 µM, 1 hr preincubation then coincubation, FFN206 5 µM, 2 hr): Negligible uptake of FFN206 |
